Experimental data as given in PMC6892409, “Phenotypic proteomic profiling identifies a landscape of targets for circadian clock–modulating compounds” (Life Science Alliance, 2019).
Read-outs that look alike come from different tables or passages of the source.

Assays:
Per2-dLuc U2OS cells = assay: Circadian luminescence period assay, Per2-dLuc U2OS cells; type: cell-based, human; settings: for Circadian period length: 8 μM, mean ± SEM, control 24.2 ± […]; for Effect of kinase inhibitor on circadian period length: threefold serial dilution starting at 100 μM
Protocol: Per2-dLuc U2OS osteosarcoma and Bmal1-dLuc U2OS osteosarcoma reporter cell lines were gifts from Dr Andrew Liu, University of Memphis, USA ([Liu et al, 2008]). […] The cells were cultured at 37°C, 5% CO2 in a standard humidified incubator.

CAMK2d = target: T1, CAMK2d (Homo sapiens, UniProt Q13557); assay: Radiometric HotSpot kinase assay; type: biochemical; settings: read-out: Enzyme activity (%) CAMK2d
T1 construct: purchased Reaction Biology
Protocol: (§1) In brief, specific kinase/substrate pairs were mixed in a buffer containing 20 mM Hepes (pH 7.5), 10 mM MgCl2, 1 mM EGTA, 0.02% Brij35, 0.02 mg/ml BSA, 0.1 mM Na3VO4, 2 mM DTT, and 1% DMSO. […] After a 20-min incubation, ATP (cat. no. A7699; Sigma-Aldrich) and [γ-^33P] ATP (cat. no. NEG602H001MC; PerkinElmer) were added at a final total concentration of […].

ERK1/MAPK3 = target: T2, ERK1/MAPK3 (Homo sapiens, UniProt P27361); assay: Radiometric HotSpot kinase assay; type: biochemical; settings: read-out: Enzyme activity (%) ERK1/MAPK3
T2 construct: purchased Reaction Biology
Protocol: as §1

CK2a = target: T3, CK2a (Homo sapiens, UniProt P68400); assay: Radiometric HotSpot kinase assay; type: biochemical; settings: read-out: Enzyme activity (%) CK2a
T3 construct: purchased Reaction Biology
Protocol: as §1

CAMK1d = target: T4, CAMK1d (Homo sapiens, UniProt Q8IU85); assay: Radiometric HotSpot kinase assay; type: biochemical; settings: read-out: Enzyme activity (%) CAMK1d
T4 construct: purchased Reaction Biology
Protocol: as §1

CDK7 = target: T5, CDK7 (Homo sapiens, UniProt P50613); assay: Radiometric HotSpot kinase assay; type: biochemical; settings: read-out: Enzyme activity (%) CDK7
T5 construct: purchased Reaction Biology
Protocol: as §1

TNIK = target: T6, TNIK (Homo sapiens, UniProt Q9UKE5); assay: Radiometric HotSpot kinase assay; type: biochemical; settings: for remaining activity at 100 µM: read-out: Enzyme activity (%) TNIK
T6 construct: purchased Reaction Biology
Protocol: as §1

MST4/STK26 = target: T7, MST4/STK26 (Homo sapiens, UniProt Q9P289); assay: Radiometric HotSpot kinase assay; type: biochemical; settings: read-out: Enzyme activity (%) MST4/STK26
T7 construct: purchased Reaction Biology
Protocol: as §1

ERK2/MAPK1 = target: T8, ERK2/MAPK1 (Homo sapiens, UniProt P28482); assay: Radiometric HotSpot kinase assay; type: biochemical; settings: read-out: Enzyme activity (%) ERK2/MAPK1
T8 construct: purchased Reaction Biology
Protocol: as §1

Synechococcus elongatus = assay: Luminescence rhythm period assay in cyanobacteria; settings: 3, 8, 16 and 32 μM
Protocol: The D730nm was maintained between 0.27 and 0.45 by dilution with fresh medium.
Circadian period–altering compounds (dissolved in DMSO, final 0.5% DMSO) were then added in the air medium to reach the different desired concentrations. […] Images were generated from integrated photon counts over 25 min every 30 min using Metamorph software (Molecular Devices). […] Exported images were composed into image stacks and were quantified in a time series using a custom script in NIH ImageJ software, applying the “Multi Measure” plugin.

CK1d = target: T9, CK1d (Homo sapiens, UniProt P48730); assay: Radiometric HotSpot kinase assay; type: biochemical; settings: n = 3, remaining activity vs DMSO, read-out: Enzyme activity (%) CK1d
T9 construct: purchased Reaction Biology
Protocol: as §1

CDK2 = target: T10, CDK2 (Homo sapiens, UniProt P24941); assay: Radiometric HotSpot kinase assay; type: biochemical; settings: n = 3, remaining activity vs DMSO, read-out: Enzyme activity (%) CDK2
T10 construct: purchased Reaction Biology
Protocol: as §1

U2OS cells = assay: TMT quantitative proteomics of compound-treated U2OS cells; type: cell-based, human; settings: 10 μM, 48 h, vs DMSO
[1] = 100 μM, n = 3, remaining activity vs DMSO

T6 sequence (Q9UKE5 whole entry): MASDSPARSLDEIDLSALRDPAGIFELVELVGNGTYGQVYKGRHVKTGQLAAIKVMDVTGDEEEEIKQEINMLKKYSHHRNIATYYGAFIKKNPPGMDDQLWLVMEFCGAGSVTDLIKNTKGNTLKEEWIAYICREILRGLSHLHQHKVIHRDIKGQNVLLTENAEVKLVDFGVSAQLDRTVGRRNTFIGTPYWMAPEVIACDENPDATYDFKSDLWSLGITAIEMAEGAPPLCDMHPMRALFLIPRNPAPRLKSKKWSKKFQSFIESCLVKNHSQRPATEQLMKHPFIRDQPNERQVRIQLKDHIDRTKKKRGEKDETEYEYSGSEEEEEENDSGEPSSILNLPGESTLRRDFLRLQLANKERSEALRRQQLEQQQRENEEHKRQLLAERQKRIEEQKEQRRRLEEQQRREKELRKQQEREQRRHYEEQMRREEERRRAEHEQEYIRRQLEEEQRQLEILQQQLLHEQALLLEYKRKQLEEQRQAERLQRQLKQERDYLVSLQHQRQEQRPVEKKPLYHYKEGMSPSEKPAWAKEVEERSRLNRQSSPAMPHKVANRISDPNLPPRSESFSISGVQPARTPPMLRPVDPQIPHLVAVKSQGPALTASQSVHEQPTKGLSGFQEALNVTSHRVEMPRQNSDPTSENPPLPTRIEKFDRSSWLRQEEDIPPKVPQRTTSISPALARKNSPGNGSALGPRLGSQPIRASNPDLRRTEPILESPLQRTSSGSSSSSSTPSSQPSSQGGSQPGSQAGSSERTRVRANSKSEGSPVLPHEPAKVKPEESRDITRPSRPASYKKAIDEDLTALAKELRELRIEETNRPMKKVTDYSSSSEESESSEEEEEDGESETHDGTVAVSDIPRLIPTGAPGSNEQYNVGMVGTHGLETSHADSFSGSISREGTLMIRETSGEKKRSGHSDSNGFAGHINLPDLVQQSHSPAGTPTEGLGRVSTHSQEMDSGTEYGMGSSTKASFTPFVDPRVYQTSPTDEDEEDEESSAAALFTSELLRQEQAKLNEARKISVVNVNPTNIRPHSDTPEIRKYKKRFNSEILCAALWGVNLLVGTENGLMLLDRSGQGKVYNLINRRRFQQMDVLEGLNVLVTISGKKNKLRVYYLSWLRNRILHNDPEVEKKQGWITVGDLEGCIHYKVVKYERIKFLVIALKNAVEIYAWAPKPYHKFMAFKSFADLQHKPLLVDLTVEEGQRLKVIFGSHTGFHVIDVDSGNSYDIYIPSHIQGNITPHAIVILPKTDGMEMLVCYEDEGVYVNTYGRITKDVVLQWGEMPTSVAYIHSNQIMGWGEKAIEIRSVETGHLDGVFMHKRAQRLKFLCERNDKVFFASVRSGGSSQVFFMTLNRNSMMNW
T7 sequence (Q9P289 whole entry): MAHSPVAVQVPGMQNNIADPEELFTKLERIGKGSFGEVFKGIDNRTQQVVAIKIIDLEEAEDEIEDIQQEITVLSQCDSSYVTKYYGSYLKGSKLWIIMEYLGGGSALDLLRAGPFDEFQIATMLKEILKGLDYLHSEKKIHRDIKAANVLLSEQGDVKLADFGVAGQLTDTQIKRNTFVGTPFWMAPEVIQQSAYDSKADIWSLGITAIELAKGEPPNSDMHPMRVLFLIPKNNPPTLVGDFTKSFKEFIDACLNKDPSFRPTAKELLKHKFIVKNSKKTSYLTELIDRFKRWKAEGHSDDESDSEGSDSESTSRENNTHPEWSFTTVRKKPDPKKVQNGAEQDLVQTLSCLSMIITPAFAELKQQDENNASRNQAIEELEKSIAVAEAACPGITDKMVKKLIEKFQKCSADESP
T3 sequence (P68400 whole entry): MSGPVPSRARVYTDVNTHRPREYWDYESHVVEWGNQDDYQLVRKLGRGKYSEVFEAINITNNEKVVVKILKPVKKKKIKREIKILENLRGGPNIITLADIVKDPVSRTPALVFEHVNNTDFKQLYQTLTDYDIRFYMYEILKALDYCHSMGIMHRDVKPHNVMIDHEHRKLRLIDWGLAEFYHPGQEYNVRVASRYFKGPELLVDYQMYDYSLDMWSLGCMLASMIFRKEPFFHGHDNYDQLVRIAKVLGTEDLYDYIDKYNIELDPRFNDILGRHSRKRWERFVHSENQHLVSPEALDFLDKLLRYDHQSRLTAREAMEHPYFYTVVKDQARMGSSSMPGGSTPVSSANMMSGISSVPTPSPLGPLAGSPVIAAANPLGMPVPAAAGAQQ
T4 sequence (Q8IU85 whole entry): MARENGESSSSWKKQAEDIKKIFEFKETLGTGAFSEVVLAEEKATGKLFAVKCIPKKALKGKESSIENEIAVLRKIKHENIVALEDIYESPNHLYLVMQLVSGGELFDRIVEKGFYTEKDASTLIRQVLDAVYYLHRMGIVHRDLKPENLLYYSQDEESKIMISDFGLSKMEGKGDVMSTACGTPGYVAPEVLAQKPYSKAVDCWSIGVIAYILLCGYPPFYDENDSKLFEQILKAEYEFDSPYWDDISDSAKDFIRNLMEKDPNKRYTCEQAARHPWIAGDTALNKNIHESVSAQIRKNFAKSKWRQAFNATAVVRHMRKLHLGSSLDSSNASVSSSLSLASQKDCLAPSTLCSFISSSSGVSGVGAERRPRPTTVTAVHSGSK
T1 sequence (Q13557 whole entry): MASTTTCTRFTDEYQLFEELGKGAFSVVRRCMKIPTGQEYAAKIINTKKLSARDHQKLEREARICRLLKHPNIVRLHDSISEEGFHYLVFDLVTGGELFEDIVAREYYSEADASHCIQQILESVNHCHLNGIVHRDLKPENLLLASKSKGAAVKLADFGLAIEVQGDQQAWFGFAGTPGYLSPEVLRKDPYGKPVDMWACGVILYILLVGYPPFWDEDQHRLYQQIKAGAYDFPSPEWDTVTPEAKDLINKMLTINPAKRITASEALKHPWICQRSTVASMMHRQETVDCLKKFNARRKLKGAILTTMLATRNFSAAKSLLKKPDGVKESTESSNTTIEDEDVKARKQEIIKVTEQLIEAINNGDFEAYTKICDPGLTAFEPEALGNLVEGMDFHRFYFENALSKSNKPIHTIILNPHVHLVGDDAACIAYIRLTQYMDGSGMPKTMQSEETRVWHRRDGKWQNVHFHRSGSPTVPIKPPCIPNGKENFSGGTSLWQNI
T5 sequence (P50613 whole entry): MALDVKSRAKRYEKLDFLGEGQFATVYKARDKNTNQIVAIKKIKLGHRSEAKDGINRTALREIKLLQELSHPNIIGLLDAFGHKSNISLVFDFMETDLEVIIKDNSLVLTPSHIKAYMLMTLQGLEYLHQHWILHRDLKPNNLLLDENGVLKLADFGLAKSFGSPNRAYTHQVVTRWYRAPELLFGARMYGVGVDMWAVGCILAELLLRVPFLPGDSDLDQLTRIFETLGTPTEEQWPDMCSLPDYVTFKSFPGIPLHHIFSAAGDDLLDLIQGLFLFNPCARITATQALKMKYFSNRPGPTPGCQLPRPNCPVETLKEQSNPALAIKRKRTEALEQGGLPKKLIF
T5 sequence (P51946 whole entry partner): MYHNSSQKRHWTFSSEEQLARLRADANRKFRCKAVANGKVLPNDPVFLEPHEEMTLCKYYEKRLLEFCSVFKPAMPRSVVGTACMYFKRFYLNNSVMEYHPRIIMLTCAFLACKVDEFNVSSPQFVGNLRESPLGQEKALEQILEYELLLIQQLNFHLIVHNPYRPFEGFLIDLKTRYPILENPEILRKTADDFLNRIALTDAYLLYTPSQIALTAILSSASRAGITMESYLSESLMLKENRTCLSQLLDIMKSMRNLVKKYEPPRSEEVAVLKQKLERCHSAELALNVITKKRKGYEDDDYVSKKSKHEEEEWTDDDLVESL
T5 sequence (P51948 whole entry partner): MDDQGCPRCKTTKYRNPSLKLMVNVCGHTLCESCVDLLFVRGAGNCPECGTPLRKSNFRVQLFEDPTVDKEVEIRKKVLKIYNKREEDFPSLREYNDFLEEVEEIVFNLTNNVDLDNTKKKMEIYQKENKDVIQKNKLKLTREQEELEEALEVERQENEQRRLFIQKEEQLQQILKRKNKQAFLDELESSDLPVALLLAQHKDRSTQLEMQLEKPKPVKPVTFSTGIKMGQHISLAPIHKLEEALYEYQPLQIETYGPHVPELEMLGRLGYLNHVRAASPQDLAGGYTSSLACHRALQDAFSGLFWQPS
T2 sequence (P27361 whole entry): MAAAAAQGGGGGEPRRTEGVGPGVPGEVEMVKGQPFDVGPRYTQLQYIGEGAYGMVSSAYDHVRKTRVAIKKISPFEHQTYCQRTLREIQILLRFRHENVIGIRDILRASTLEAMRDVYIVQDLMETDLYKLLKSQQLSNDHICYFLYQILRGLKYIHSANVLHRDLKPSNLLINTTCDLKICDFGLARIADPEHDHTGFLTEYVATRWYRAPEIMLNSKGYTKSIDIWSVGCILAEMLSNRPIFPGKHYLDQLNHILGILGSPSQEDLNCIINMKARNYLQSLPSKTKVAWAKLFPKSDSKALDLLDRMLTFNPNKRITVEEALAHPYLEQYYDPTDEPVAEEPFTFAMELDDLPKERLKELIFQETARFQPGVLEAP
T8 sequence (P28482 whole entry): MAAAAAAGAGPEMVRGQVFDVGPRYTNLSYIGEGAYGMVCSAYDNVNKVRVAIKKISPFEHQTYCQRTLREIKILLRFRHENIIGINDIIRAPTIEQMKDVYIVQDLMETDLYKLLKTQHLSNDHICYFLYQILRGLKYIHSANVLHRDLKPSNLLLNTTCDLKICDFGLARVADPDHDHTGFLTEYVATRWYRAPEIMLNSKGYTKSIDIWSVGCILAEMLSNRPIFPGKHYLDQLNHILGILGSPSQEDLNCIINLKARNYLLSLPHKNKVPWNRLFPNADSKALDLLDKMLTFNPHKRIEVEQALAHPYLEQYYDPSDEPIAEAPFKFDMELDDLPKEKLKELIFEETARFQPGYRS

CC[C@H](CO)Nc1nc(NCc2ccccc2)c2ncn(C(C)C)c2n1 [Roscovitine, roscovitine]
Circadian period length (Per2-dLuc U2OS cells): 28.9 ± 0.08 h
remaining activity at 100 µM (CAMK2d): 38.9%
remaining activity at 100 µM (ERK1/MAPK3): 59.1%
remaining activity at 100 µM (CK2a): 89.4%
remaining activity at 100 µM (CAMK1d): 56.7%
remaining activity at 100 µM (CDK7): 4%
remaining activity at 100 µM (TNIK): 7.8%
remaining activity at 100 µM (MST4/STK26): 40.1%
remaining activity at 100 µM (ERK2/MAPK1): 50.6%
Effect on period length in cyanobacteria (Synechococcus elongatus): do not affect period length

CC(C)[C@H](CO)Nc1nc(Nc2cccc(Cl)c2)c2ncn(C(C)C)c2n1 [Purvalanol A, purvalanol A]
Circadian period length (Per2-dLuc U2OS cells): 25.2 ± 0.04 h
remaining activity at 100 µM (CAMK2d; [1]): 53.2%
remaining activity at 100 µM (ERK1/MAPK3; [1]): 83.6%
remaining activity at 100 µM (CK2a; [1]): 76.9%
remaining activity at 100 µM (CK1d): 21.7%
remaining activity at 100 µM (CAMK1d; [1]): 49.2%
remaining activity at 100 µM (CDK7): 3.8%
remaining activity at 100 µM (TNIK; [1]): 2.3%
IC50 (TNIK; 10-dose, threefold serial dilution starting at 100 μM): < 500 nM
remaining activity at 100 µM (CDK2): 0.7%
remaining activity at 100 µM (MST4/STK26; [1]): 32.7%
remaining activity at 100 µM (ERK2/MAPK1; [1]): 66.5%
Average Fold-change Acsf2 Q96CM8 (U2OS cells): 1.16
Average Fold-change Alcam Q13740 (U2OS cells): 1.20
Average Fold-change Arhgap29 Q52LW3 (U2OS cells): 1.19
Average Fold-change Cav1 Q03135 (U2OS cells): 1.17
Average Fold-change Cavin1 Q6NZI2 (U2OS cells): 1.22
Average Fold-change Cavin2 O95810 (U2OS cells): 1.29
Average Fold-change Cd47 Q08722 (U2OS cells): 1.17
Average Fold-change Cdk6 Q00534 (U2OS cells): 0.86
Average Fold-change Cdk7 P50613 (U2OS cells): 0.74
Average Fold-change Cdkn1a P38936 (U2OS cells): 1.52
Average Fold-change Cdkn1b P46527 (U2OS cells): 1.37
Average Fold-change Cers5 Q8N5B7 (U2OS cells): 1.14
Average Fold-change Cks1b P61024 (U2OS cells): 0.85
Average Fold-change Cks2 P33552 (U2OS cells): 0.83
Average Fold-change Col1a1 P02452 (U2OS cells): 0.80
Average Fold-change Ctsb P07858 (U2OS cells): 1.29
Average Fold-change Dpysl4 O14531 (U2OS cells): 1.15
Average Fold-change Fas P25445 (U2OS cells): 1.18
Average Fold-change Gls O94925 (U2OS cells): 0.80
Average Fold-change Gys1 P13807 (U2OS cells): 1.22
Average Fold-change H1f0 P07305 (U2OS cells): 1.20
Average Fold-change Hist1h4a P62805 (U2OS cells): 1.50
Average Fold-change Hist2h3a Q71DI3 (U2OS cells): 1.29
Average Fold-change Hmga1 P17096 (U2OS cells): 1.16
Average Fold-change Hmgcs1 Q01581 (U2OS cells): 0.77
Average Fold-change Hmgn2 P05204 (U2OS cells): 1.15
Average Fold-change Irf2bpl Q9H1B7 (U2OS cells): 1.15
Average Fold-change Itga2 P17301 (U2OS cells): 1.20
Average Fold-change Itga3 P26006 (U2OS cells): 1.17
Average Fold-change Naga P17050 (U2OS cells): 1.19
Average Fold-change Nbn O60934 (U2OS cells): 0.83
Average Fold-change Npc2 P61916 (U2OS cells): 1.33
Average Fold-change Pak1 Q13153 (U2OS cells): 1.19
Average Fold-change Ppp1cc P36873 (U2OS cells): 0.85
Average Fold-change Psap P07602 (U2OS cells): 1.20
Average Fold-change Rpl14 P50914 (U2OS cells): 0.75
Average Fold-change S100a2 P29034 (U2OS cells): 1.30
Average Fold-change Selenoh Q8IZQ5 (U2OS cells): 1.14
Average Fold-change Slc5a3 P53794 (U2OS cells): 1.16
Average Fold-change Slc20a1 Q8WUM9 (U2OS cells): 1.20
Average Fold-change Tada3 O75528 (U2OS cells): 1.28
Average Fold-change Uhrf1 Q96T88 (U2OS cells): 0.82
Effect on period length in cyanobacteria (Synechococcus elongatus): do not affect period length

Cc1cc2sc(NC(=O)Cc3ccccc3)nc2cc1Cl [LH846]
Effect of kinase inhibitor on circadian period length (Per2-dLuc U2OS cells): substantial dose-dependent increase in the period length

NC(=O)c1ccc(-c2nc(-c3ccc4c(c3)OCCO4)c(-c3ccccn3)[nH]2)cc1 [D4476]
Effect of kinase inhibitor on circadian period length (Per2-dLuc U2OS cells): substantial dose-dependent increase in the period length

COc1ccc2c(c1)/C(=C/c1cnc[nH]1)C(=O)N2 [SU9516]
Effect of kinase inhibitor on circadian period length (Per2-dLuc U2OS cells): substantial dose-dependent increase in the period length

CC(C)n1cnc2c(NCc3cccc(C(F)(F)F)c3)ncnc21 [Longdaysin, longdaysin]
Circadian period length (Per2-dLuc U2OS cells): 35.1 ± 1.29 h
Average Fold-change Acot9 Q9Y305 (U2OS cells): 0.86
Average Fold-change Atp5f1e P56381 (U2OS cells): 0.88
Average Fold-change Bak1 Q16611 (U2OS cells): 1.18
Average Fold-change Cdk7 P50613 (U2OS cells): 0.85
Average Fold-change Col1a1 P02452 (U2OS cells): 0.83
Average Fold-change Csnk2a2 P19784 (U2OS cells): 0.81
Average Fold-change Csnk1d P48730 (U2OS cells): 0.75
Average Fold-change Ctsb P07858 (U2OS cells): 1.19
Average Fold-change Cyb5b O43169 (U2OS cells): 1.15
Average Fold-change Emsy Q7Z589 (U2OS cells): 0.86
Average Fold-change Gusb P08236 (U2OS cells): 1.17
Average Fold-change H1f0 P07305 (U2OS cells): 1.31
Average Fold-change Hist1h4a P62805 (U2OS cells): 1.36
Average Fold-change Hist2h3a Q71DI3 (U2OS cells): 1.28
Average Fold-change Krt9 P35527 (U2OS cells): 0.78
Average Fold-change Mapk1 P28482 (U2OS cells): 0.75
Average Fold-change Mapk14 Q16539 (U2OS cells): 0.78
Average Fold-change Nemf O60524 (U2OS cells): 0.80
Average Fold-change Npc2 P61916 (U2OS cells): 1.20
Average Fold-change Nucks1 Q9H1E3 (U2OS cells): 1.22
Average Fold-change Ppig Q13427 (U2OS cells): 0.89
Average Fold-change Rpl7a P62424 (U2OS cells): 0.85
Average Fold-change Rpl14 P50914 (U2OS cells): 0.80
Average Fold-change Rpl18 Q07020 (U2OS cells): 0.85
Average Fold-change Rpl28 P46779 (U2OS cells): 0.86
Average Fold-change Rpl37 P61927 (U2OS cells): 0.87
Average Fold-change Rpl37a P61513 (U2OS cells): 0.88
Average Fold-change Smarcd2 Q92925 (U2OS cells): 0.88
Average Fold-change Spryd4 Q8WW59 (U2OS cells): 0.78
Average Fold-change Tecr Q9NZ01 (U2OS cells): 0.46
Average Fold-change Terf2 Q15554 (U2OS cells): 1.15
Effect on period length in cyanobacteria (Synechococcus elongatus): do not affect period length
